# Laboratory results from patent US12533341B2, “Small molecule inhibitors of voltage-gated sodium channel 1.7 and methods of using same” (Duke University, priority 2019, dated 2026).
# “Also recorded” adds a separate entry of the source. Where two headings read alike, the source gives them in different places.
# How the values were obtained:
# [1] = test system: mouse dorsal root ganglion (DRG) neurons; assay: Patch-clamp of transient sodium currents in mouse DRG neurons (naive and paclitaxel-pretreated); type: cell-based; details: for inhibition at 10 µM: Mus musculus, DRG neuron
# Method: Mouse DRGs were removed aseptically from mice (4-6 weeks) and incubated with collagenase (1.25 mg/mL, Roche)/dispase-II (2.4 units/mL, Roche) in HBSS buffer at 37° C. for 90 min. Cells were mechanically dissociated with a flame polished Pasteur pipette in the presence of 0.05% DNAse I (Sigma). DRG cells were plated on 0.5 mg/mL poly-D-lysine-coated glass cover slips and grown in a neurobasal defined medium (with 10% FBS, 2% B27 supplement, Invitrogen) with 5 μM AraC and 5% carbon dioxide at 36.5° C. DRG neurons were grown for 24 hours before use. Patch clamp recordings were conducted in small-diameter (<25 μm) DRG neurons.
# Whole-cell patch-clamp recordings were conducted at room temperature. Patch pipettes pulled from borosilicate capillaries (World Precision Instruments, Inc., Sarasota, FL) were used to record transient Na currents with an Axopatch-200B amplifier with a Digidata 1440A (Axon Instruments, Sunnyvale CA). The resistance was set to 3-4 MΩ when filled with pipette solution. The pipette solution contained (in mmol/L): CsCl 130, NaCl 9, MgCl2 1, EGTA 10, HEPES 10, adjusted to pH 7.3 with CsOH. The external solution for recording transient Na^+ currents contained (in mmol/L): NaCl 131, TEACl 10, CsCl 10, CaCl2) 1, MgCl2 2, CdCl2 0.3, 4-aminopyridine 3, HEPES 10, glucose 10, adjusted to pH 7.4 with NaOH. The recording chamber (300 μL) was continuously superfused at 3-4 mL/min. Series resistance was compensated (>80%) and leak subtraction was performed. Data were low-pass-filtered at 2 kHz and sampled at 10 kHz. pClamp10 (Axon Instruments) software was used during experiments and analysis. In voltage-clamp experiments, transient Na+ currents were evoked by a test pulse to 0 mV from the holding potential (−70 mV).
# [2] = test system: human dorsal root ganglion (DRG) neurons; assay: Patch-clamp of transient sodium currents in human DRG neurons; type: cell-based
# Method: Non-diseased human DRGs were obtained from donors through NDRI with permission of exemption from Duke IRB. Postmortem L3-L5 DRGs were dissected and delivered in ice-cold culture medium to the laboratory at Duke University within 24-72 hours of donor's death. Upon the delivery, DRGs were rapidly dissected from nerve roots and minced in a calcium-free HBSS (Gibco). DRGs were digested at 37° C. in a humidified 02 incubator for 120 min with collagenase Type II (Worthington, 285 units/mg, 12 mg/mL final concentration) and dispase II (Roche, 1 unit/mg, 20 mg/mL) in HBSS buffer. DRGs were mechanically dissociated using fire-polished pipettes, filtered through a […] nylon mesh and centrifuged (500×g for 5 min). The pellet was resuspended, plated on 0.5 mg/mL poly-D-lysine-coated glass coverslips, and cells were grown in Neurobasal medium supplemented with 10% FBS, 2% B-27 supplement, and 1% penicillin/streptomycin. Patch clamp recordings were conducted in small-diameter (<55 μm) DRG neurons (PMID: 26479925).
# Whole-cell patch-clamp recordings were conducted at room temperature. Patch pipettes pulled from borosilicate capillaries (World Precision Instruments, Inc., Sarasota, FL) were used to record transient Na currents with an Axopatch-200B amplifier with a Digidata 1440A (Axon Instruments, Sunnyvale CA). The resistance was set to 3-4 MΩ when filled with pipette solution. […]
# [3] = test system: paclitaxel-induced mechanical allodynia; assay: Paclitaxel-induced neuropathic pain model (von Frey); type: in vivo, mouse; details: for effect on paclitaxel-induced mechanical allodynia: mice
# Method: Intraperitoneal injection of paclitaxel (PTX, 2 mg/kg for multiple injections at day 0, 2, 4, and 6) was given to generate chemotherapy-associated neuropathic pain. Neuropathic pain behavior was tested 3 weeks after PTX injection using a von Frey test. Briefly, animals were habituated to the testing environment daily for at least 2 days before the baseline testing. Animals were confined in boxes placed on an elevated metal mesh floor and the hind paws were stimulated with a series of von Frey hairs with logarithmically increasing stiffness (0.02-2.56 g, Stoelting), presented perpendicularly to the central plantar surface. The 50% paw withdrawal threshold was determined by an up-down method.
compound,measurement,setting,value
"O=C(CC(c1cccc(Oc2ccccc2)c1)c1cn(Cc2ccccc2)c2ccccc12)NCCN1CCCC1 (centres unmarked) [Compound 9, 3-(1-benzyl-1H-indol-3-yl)-3-(3-phenoxyphenyl)-N-(2-(pyrrolidin-1-yl)ethyl)propanamide]",time to peak inhibition after the drug incubation,"[1]; 10 μM, mouse DRG neurons",10 min
same,inhibition at 10 µM,"[1]; 10 μM, naive (non-treated) mouse DRG neurons, read-out: inhibition of peak INaT (sodium currents)",17%
same,inhibition at 10 µM,"[1]; 10 μM, paclitaxel pretreated mouse DRG neurons, read-out: inhibition of sodium currents",44%
same,mean relative current at the last measurement,"[1]; mouse DRG neurons, naive",72 % of the baseline
same,mean relative current at the last measurement,"[1]; mouse DRG neurons, paclitaxel-treated",43 % of the baseline
same,mean relative current at the last measurement,[2],73 % of the baseline
same,relative current difference (inhibition of peak INaT),[2]; 10 uM,0.22
same,effect on paclitaxel-induced mechanical allodynia,"[3]; intraperitoneal 30 mg/kg, listed as DA-0218",no effect on allodynia; also recorded: did not produce any anti-allodynia effects
same,"effect duration, chronic pain","[3]; intrathecal, paclitaxel model",3 h
same,effect on paclitaxel-induced mechanical allodynia,"[3]; intrathecal, single injection, listed as DA-0218",acute reduction; also recorded: transiently but completely reversed; also recorded: statistically significant anti-allodynia effects
same,analgesic effect after repeated intrathecal injections (2nd and 3rd injection),"[3]; tested one hour after each injection, paclitaxel model, listed as DA-0218",did not produce any analgesic effect; also recorded: induced acute tolerance
